# Measured values taken from patent US10570184B2, “GLP-1/glucagon receptor co-agonists for medical use” (Novo Nordisk A/S, priority 2014, dated 2020).
# Starred links: 1 amine or outer side, 2 acyl side, 3 side chain; linkers in the order of their positions; H or OH if unused. Non-standard residues stand in square brackets, D forms with d. Residues, ends and D or L forms follow the SMILES beside them. Groups on a side chain read outwards from the residue. *: point of attachment. C18 diacid = O=C(O)CCCCCCCCCCCCCCCCC(=O)*; γGlu = O=C(O)[C@H](CCC(=O)[*:2])N[*:1]; Ac4c = NC1(C(=O)O)CCC1; AEEA = NCCOCCOCC(=O)O; Aib = CC(C)(N)C(=O)O
# Molecular target: T1, human GLP-1 receptor (Homo sapiens, UniProt P43220)
# T1 construct: expressed in transfected cells; host or cells: membranes of BHK cells (parent BHKTS13), clone FCW467-12A
# T1 sequence (P43220 24-463): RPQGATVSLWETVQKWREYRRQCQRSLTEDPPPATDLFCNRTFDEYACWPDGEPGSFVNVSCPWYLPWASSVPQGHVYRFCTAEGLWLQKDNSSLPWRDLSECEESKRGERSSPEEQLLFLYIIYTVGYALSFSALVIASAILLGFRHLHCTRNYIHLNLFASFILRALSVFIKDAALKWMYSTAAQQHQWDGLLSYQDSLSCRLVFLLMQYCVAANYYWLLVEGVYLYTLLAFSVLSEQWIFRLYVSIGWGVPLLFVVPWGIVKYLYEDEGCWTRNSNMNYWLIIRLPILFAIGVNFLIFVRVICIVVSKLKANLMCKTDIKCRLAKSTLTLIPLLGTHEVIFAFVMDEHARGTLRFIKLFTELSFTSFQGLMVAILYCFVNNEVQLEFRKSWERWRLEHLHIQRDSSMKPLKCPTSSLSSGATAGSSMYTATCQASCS
# Experiment: Assay (II)(a) GLP-1 receptor binding, 125I-GLP-1 displacement SPA on BHK membranes
# Details: without presence of serum albumin; read-out: GLP-1R IC50 (nM) [Assay (II)(a)]
# In short: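 Membranes from BHK cells (clone FCW467-12A) stably expressing human GLP-1R were incubated with serially diluted compounds (8×10EE-13 to 8×10EE-7 M before addition) and [125I]-GLP-1-(7-36)NH2 with WGA SPA beads, 2 h at 30° C, pH 7.4. IC50 taken from displacement by non-linear regression. Run at ≤0.001% or 2.0% final serum albumin.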
row,Compound,IC50
1,"CC[C@H](C)[C@H](NC(=O)[C@H](CC(C)C)NC(=O)[C@H](Cc1c[nH]c2ccccc12)NC(=O)[C@H](CCCCNC(=O)COCCOCCNC(=O)COCCOCCNC(=O)CC[C@H](NC(=O)CC[C@H](NC(=O)CC[C@H](NC(=O)CCCCCCCCCCCCCCCCC(=O)O)C(=O)O)C(=O)O)C(=O)O)NC(=O)[C@@H](NC(=O)[C@H](Cc1ccccc1)NC(=O)[C@H](CCC(=O)O)NC(=O)[C@H](CCCNC(=N)N)NC(=O)[C@H](C)NC(=O)[C@H](CCCNC(=N)N)NC(=O)[C@H](CCCNC(=N)N)NC(=O)[C@H](C)NC(=O)[C@H](CC(=O)O)NC(=O)[C@H](CC(C)C)NC(=O)[C@H](Cc1ccc(O)cc1)NC(=O)[C@H](CCCCN)NC(=O)[C@H](CO)NC(=O)[C@H](Cc1ccc(O)cc1)NC(=O)[C@H](CC(=O)O)NC(=O)[C@H](CO)NC(=O)[C@@H](NC(=O)[C@H](Cc1ccccc1)NC(=O)[C@@H](NC(=O)CNC(=O)[C@H](CCC(N)=O)NC(=O)C(C)(C)NC(=O)[C@@H](N)Cc1c[nH]cn1)[C@@H](C)O)[C@@H](C)O)C(C)C)C(=O)N[C@@H](CO)C(=O)N[C@H](C(N)=O)[C@@H](C)O [Chem. 4, N^ε24-[2-[2-[2-[[2-[2-[2-[[(4S)-4-carboxy-4-[[(4S)-4-carboxy-4-[[(4S)-4-carboxy-4-(17-carboxyheptadecanoylamino)butanoyl]amino]butanoyl]amino]butanoyl]amino]ethoxy]ethoxy]acetyl]amino]ethoxy]ethoxy]acetyl]-[Aib2,Ala16,Arg20,Glu21,Lys24,Ile27,Ser28]-Glucagon amide] (H-H[Aib]QGTFTSDYSKYLDARRAREFVK([AEEA-AEEA-γGlu-γGlu-γGlu-C18 diacid])WLIST-NH2; N-terminus assumed)",0.1 nM
2,"CC[C@H](C)[C@H](NC(=O)[C@H](CC(C)C)NC(=O)[C@H](Cc1c[nH]c2ccccc12)NC(=O)[C@H](CCC(N)=O)NC(=O)[C@@H](NC(=O)[C@H](Cc1ccccc1)NC(=O)[C@H](CC(=O)O)NC(=O)[C@H](CCC(N)=O)NC(=O)[C@H](C)NC(=O)[C@H](CCCNC(=N)N)NC(=O)[C@H](CCCNC(=N)N)NC(=O)[C@H](C)NC(=O)[C@H](CC(=O)O)NC(=O)[C@H](CC(C)C)NC(=O)[C@H](Cc1ccc(O)cc1)NC(=O)[C@H](CCCCN)NC(=O)[C@H](CO)NC(=O)[C@H](CC(C)C)NC(=O)[C@H](CC(=O)O)NC(=O)[C@H](CO)NC(=O)[C@@H](NC(=O)[C@H](Cc1ccccc1)NC(=O)[C@@H](NC(=O)CNC(=O)[C@H](CCC(N)=O)NC(=O)C(C)(C)NC(=O)[C@@H](N)Cc1c[nH]cn1)[C@@H](C)O)[C@@H](C)O)C(C)C)C(=O)N[C@@H](CCCCNC(=O)COCCOCCNC(=O)COCCOCCNC(=O)CC[C@H](NC(=O)CC[C@H](NC(=O)CC[C@H](NC(=O)CCCCCCCCCCCCCCCCC(=O)O)C(=O)O)C(=O)O)C(=O)O)C(=O)N[C@H](C(N)=O)[C@@H](C)O [Chem. 7, N^ε28-[2-[2-[2-[[2-[2-[2-[[(4S)-4-carboxy-4-[[(4S)-4-carboxy-4-[[(4S)-4-carboxy-4-(17-carboxyheptadecanoylamino)butanoyl]amino]butanoyl]amino]butanoyl]amino]ethoxy]ethoxy]acetyl]amino]ethoxy]ethoxy]acetyl]-[Aib2,Leu10,Ala16,Ile27,Lys28]-Glucagon amide] (H-H[Aib]QGTFTSDLSKYLDARRAQDFVQWLIK([AEEA-AEEA-γGlu-γGlu-γGlu-C18 diacid])T-NH2; N-terminus assumed)",0.3 nM
3,"CC[C@H](C)[C@H](NC(=O)[C@H](CC(C)C)NC(=O)[C@H](Cc1c[nH]c2ccccc12)NC(=O)[C@H](CCC(N)=O)NC(=O)[C@@H](NC(=O)[C@H](Cc1ccccc1)NC(=O)[C@H](CCC(=O)O)NC(=O)[C@H](CCCNC(=N)N)NC(=O)[C@H](C)NC(=O)[C@H](CCCNC(=N)N)NC(=O)[C@H](CCCNC(=N)N)NC(=O)[C@H](CO)NC(=O)[C@H](CCC(=O)O)NC(=O)[C@H](CC(C)C)NC(=O)[C@H](Cc1ccc(O)cc1)NC(=O)[C@H](CCCNC(=N)N)NC(=O)[C@H](CO)NC(=O)[C@H](CC(C)C)NC(=O)[C@H](CC(=O)O)NC(=O)[C@H](CO)NC(=O)[C@@H](NC(=O)[C@H](Cc1ccccc1)NC(=O)[C@@H](NC(=O)CNC(=O)[C@H](CCC(N)=O)NC(=O)C1(NC(=O)[C@@H](N)Cc2c[nH]cn2)CCC1)[C@@H](C)O)[C@@H](C)O)C(C)C)C(=O)N[C@@H](CCCCNC(=O)CC[C@H](NC(=O)CC[C@H](NC(=O)COCCOCCNC(=O)COCCOCCNC(=O)CC[C@H](NC(=O)CC[C@H](NC(=O)CCCCCCCCCCCCCCCCC(=O)O)C(=O)O)C(=O)O)C(=O)O)C(=O)O)C(=O)N[C@H](C(N)=O)[C@@H](C)O [Chem. 17, N^ε28-[(4S)-4-carboxy-4-[[(4S)-4-carboxy-4-[[2-[2 [2-[[2-[2-[2-[[(4S)-4-carboxy-4-[[(4S)-4-carboxy-4-(17-carboxyheptadecanoylamino)butanoyl]amino]butanoyl]amino]ethoxy]ethoxy]acetyl]amino]ethoxy]ethoxy]acetyl]amino]butanoyl]amino]butanoyl]-[Acb2,Leu10,Arg12,Glu15,Arg20,Glu21,Ile27,Lys28]-Glucagon amide] (H-H[Ac4c]QGTFTSDLSRYLESRRAREFVQWLIK([γGlu-γGlu-AEEA-AEEA-γGlu-γGlu-C18 diacid])T-NH2)",0.1 nM
4,"CC[C@H](C)[C@H](NC(=O)[C@H](CC(C)C)NC(=O)[C@H](Cc1c[nH]c2ccccc12)NC(=O)[C@H](CCC(N)=O)NC(=O)[C@@H](NC(=O)[C@H](Cc1ccccc1)NC(=O)[C@H](CCC(=O)O)NC(=O)[C@H](CCCNC(=N)N)NC(=O)[C@H](C)NC(=O)[C@H](CCCNC(=N)N)NC(=O)[C@H](CCCNC(=N)N)NC(=O)[C@H](CO)NC(=O)[C@H](CCC(=O)O)NC(=O)[C@H](CC(C)C)NC(=O)[C@H](Cc1ccc(O)cc1)NC(=O)[C@H](CCCCN)NC(=O)[C@H](CO)NC(=O)[C@H](CC(C)C)NC(=O)[C@H](CC(=O)O)NC(=O)[C@H](CO)NC(=O)[C@@H](NC(=O)[C@H](Cc1ccccc1)NC(=O)[C@@H](NC(=O)CNC(=O)[C@H](CCC(N)=O)NC(=O)C1(NC(=O)[C@@H](N)Cc2c[nH]cn2)CCC1)[C@@H](C)O)[C@@H](C)O)C(C)C)C(=O)N[C@@H](CCCCNC(=O)COCCOCCNC(=O)COCCOCCNC(=O)CC[C@H](NC(=O)CC[C@H](NC(=O)CCCCCCCCCCCCCCCCC(=O)O)C(=O)O)C(=O)O)C(=O)N[C@H](C(N)=O)[C@@H](C)O [Chem. 18, N^ε28-[2-[2-[2-[[2-[2-[2-[[(4S)-4-carboxy-4-[[(4S)-4-carboxy-4-(17-carboxyheptadecanoylamino)butanoyl]amino]butanoyl]amino]ethoxy]ethoxy]acetyl]amino]ethoxy]ethoxy]acetyl]-[Acb2,Leu10,Glu15,Arg20,Glu21,Ile27,Lys28]-Glucagon amide] (H-H[Ac4c]QGTFTSDLSKYLESRRAREFVQWLIK([AEEA-AEEA-γGlu-γGlu-C18 diacid])T-NH2)",0.1 nM
5,"CC[C@H](C)[C@H](NC(=O)[C@H](CC(C)C)NC(=O)[C@H](Cc1c[nH]c2ccccc12)NC(=O)[C@H](CCC(N)=O)NC(=O)[C@@H](NC(=O)[C@H](Cc1ccccc1)NC(=O)[C@H](CC(=O)O)NC(=O)[C@H](CCCNC(=N)N)NC(=O)[C@H](C)NC(=O)[C@H](CCCNC(=N)N)NC(=O)[C@H](CCCNC(=N)N)NC(=O)[C@H](C)NC(=O)[C@H](CC(=O)O)NC(=O)[C@H](CC(C)C)NC(=O)[C@H](Cc1ccc(O)cc1)NC(=O)[C@H](CCCCN)NC(=O)[C@H](CO)NC(=O)[C@H](CC(C)C)NC(=O)[C@H](CC(=O)O)NC(=O)[C@H](CO)NC(=O)[C@@H](NC(=O)[C@H](Cc1ccccc1)NC(=O)[C@@H](NC(=O)CNC(=O)[C@H](CCC(N)=O)NC(=O)C(C)(C)NC(=O)[C@@H](N)Cc1c[nH]cn1)[C@@H](C)O)[C@@H](C)O)C(C)C)C(=O)N[C@@H](CC(N)=O)C(=O)N[C@@H](CCCCNC(=O)CC[C@H](NC(=O)CC[C@H](NC(=O)COCCOCCNC(=O)COCCOCCNC(=O)CC[C@H](NC(=O)CCCCCCCCCCCCCCCCC(=O)O)C(=O)O)C(=O)O)C(=O)O)C(N)=O [Chem. 20, N^ε29-[(4S)-4-carboxy-4-[[(4S)-4-carboxy-4-[[2-[2-[2-[[2-[2-[2-[[(4S)-4-carboxy-4-(17-carboxyheptadecanoylamino)butanoyl]amino]ethoxy]ethoxy]acetyl]amino]ethoxy]ethoxy]acetyl]amino]butanoyl]amino]butanoyl]-[Aib2,Leu10,Ala16,Arg20,Ile27,Lys29]-Glucagon amide] (H-H[Aib]QGTFTSDLSKYLDARRARDFVQWLINK([γGlu-γGlu-AEEA-AEEA-γGlu-C18 diacid])-NH2; N-terminus assumed)",0.1 nM
6,"CC[C@H](C)[C@H](NC(=O)[C@H](CC(C)C)NC(=O)[C@H](Cc1c[nH]c2ccccc12)NC(=O)[C@H](CCC(N)=O)NC(=O)[C@@H](NC(=O)[C@H](Cc1ccccc1)NC(=O)[C@H](CCC(=O)O)NC(=O)[C@H](CCCNC(=N)N)NC(=O)[C@H](C)NC(=O)[C@H](CCCNC(=N)N)NC(=O)[C@H](CCCNC(=N)N)NC(=O)[C@H](C)NC(=O)[C@H](CC(=O)O)NC(=O)[C@H](CC(C)C)NC(=O)[C@H](Cc1ccc(O)cc1)NC(=O)[C@H](CCCCN)NC(=O)[C@H](CO)NC(=O)[C@H](CC(C)C)NC(=O)[C@H](CC(=O)O)NC(=O)[C@H](CO)NC(=O)[C@@H](NC(=O)[C@H](Cc1ccccc1)NC(=O)[C@@H](NC(=O)CNC(=O)[C@H](CCC(N)=O)NC(=O)C(C)(C)NC(=O)[C@@H](N)Cc1c[nH]cn1)[C@@H](C)O)[C@@H](C)O)C(C)C)C(=O)N[C@@H](CC(N)=O)C(=O)N[C@@H](CCCCNC(=O)CC[C@H](NC(=O)CC[C@H](NC(=O)COCCOCCNC(=O)COCCOCCNC(=O)CC[C@H](NC(=O)CCCCCCCCCCCCCCCCC(=O)O)C(=O)O)C(=O)O)C(=O)O)C(N)=O [Chem. 21, N^ε29-[(4S)-4-carboxy-4-[[(4S)-4-carboxy-4-[[2-[2-[2-[[2-[2-[2-[[(4S)-4-carboxy-4-(17-carboxyheptadecanoylamino)butanoyl]amino]ethoxy]ethoxy]acetyl]amino]ethoxy]ethoxy]acetyl]amino]butanoyl]amino]butanoyl]-[Aib2,Leu10,Ala16,Arg20,Glu21,Ile27,Lys29]-Glucagon amide] (H-H[Aib]QGTFTSDLSKYLDARRAREFVQWLINK([γGlu-γGlu-AEEA-AEEA-γGlu-C18 diacid])-NH2; N-terminus assumed)",0.1 nM
